From patent US4735953A, “Pharmaceutical preparation for learning stimulation and memory improvement” (priority 1986, dated 1988)

Legend:
[1] = test system: cerebral cortex of rabbits; assay: Asymmetry factor by induced potential in the hearing zone of the cerebral cortex; format: in vivo, rabbit
Protocol: (§1) In the third series of experiments the effect of the preparation according to the present invention on the functional brain asymmetry was studied. The experiments were carried out on rabbits with electrodes implanted in the brain. The electrodes under nembutal narcosis (40 mg/kg) were implanted strictly symmetrically into the bearing zone of the temporal cortex of the right and left hemispheres on its lateral surface, whereas the indifferent electrode was secured to the nasal bones of a rabbit's skull. The acoustic irritation was applied through earphones. As the acoustic irritation a sound click caused by a square-shaped pulse from an electronic stimulator with a frequency of 0.1-0.2 Hz was used; the click intensity was adjusted within the range of from 5 to 80 Db. The amplification of the taken-off biopotentials was effected on an electroencephalograph; the induced potentials were obtained by means of an analyzer. 100 experiments on 20 animals were thus conducted; the interval between experiments on one animal was 7 days. The amplitude and form of the induced potential were determined. The asymmetry factor (Kas) was calculated by the formula: [formula] Ar --amplitude of the induced potential of the […] hemisphere, μV;
(§2) A1 --amplitude of the induced potential of the left hemisphere.
(§3) The test preparations were administered hypodermally in the form of 0.5-1.5% aqueous solutions 20 minutes before the beginning of the measurements.

[2] = test system: learning ability of mice in a shuttle chamber; assay: Learning ability of mice in a shuttle chamber; format: in vivo, mouse; conditions: mice
[3] = test system: rabbit's brain hemispheres; assay: Amplitude of induced potential in brain hemispheres (acoustic irritation); format: in vivo; conditions: rabbits
Protocol: as §1, §2, §3

[4] = test system: learning ability of rats preliminarily sorted out for poor learning ability; assay: Active avoidance learning in a shuttle chamber, rats sorted out for poor learning ability; format: in vivo, rat; conditions: poorly learning rats, hypodermally 100 mg/kg
From the text: (§4) In these experiments rats are taught to avoid an electric shock by escaping into a next chamber communicating with the first chamber by means of a special opening--a door. An electric current is applied to the chamber door consisting of metal plates. A conditional irritator is a light signal together with a sound click. The learning series consisted of 50 combinations. The number of combinations necessary for the animal's learning to escape into another chamber in response to the conditional signal was determined. Five correct responses out of 6 where regarded as the proof of stability of the acquired knowledge and were denoted as a "learning criterion". After 7 days the educational procedure was repeated, and again the number of combinations necessary to acquire the "learning criterion" was determined. In the case of difference between the first and second readings the percentage of retention of the acquired knowledge was calculated.
(§5) In this experiment the effect of the preparation according to the present invention and prior art preparations was separately evaluated for the purpose of comparison on well-learning and on specially selected poorly learning rats. […] To the poorly learning rats the animals were assigned which reached no "learning criterion" in the teaching series of 50 combinations, or, in other words, a stable knowledge of active avoidance was not worked out in them. […] The preparation according to the present invention and the prior art comparison preparations were administered before the first teaching series or thereafter.
(§6) Also studied were the effects produced upon a single and repeated administration of the preparation according to the present invention for 14 days.

patients = assay: Clinical study on patients with memory disorders, compared to pyracetam; format: in vivo, human
From the text: The preparation according to the present invention was studied in clinics on 130 patients.
As regards diagnosis and sex the patients were distributed as follows:
skull-brain traumata with memory disturbance: 75 patients (52 men and 23 women)
Alzheimer's disease: 15 patients (3 men and 12 women)
Pick's disease: 5 patients (5 men)
Senile dementia: 15 patients (4 men and 11 women)
Vascular dementia (cerabral atero-sclerosis, hypertonic disease): 20 patients (7 men and 13 women)
In the group of patients with skull-brain trauma the patient's age varied from 17 to 60 years, in the other patients--from 52 to 75 years.
In addition to clinico-psychopathological methods of investigation, all the patients were subjected to neuropsychological studies during which specific tasks were offered them to solve. In doing so, the response was assessed against a 4-points scale: 3--maximally pronounced disorder, full or substantially full incapability to deal with the task set; 2--a medium degree of manifestation of the deficiency, solving the task with the experimentator's assistance; 1--minor errors, independent correction of mistakes; 0--lack of disturbances.
The treatment course duration is 30-60 days. In the case of an acute skull-brain trauma (65 patients) the treatment started 15-20 days after the moment of trauma and lasted for 20-30 days.
It is known that the function of memory has a complex brain organization and different zones of brains take part in its regulation. During the studies a multi-faceted assessment of the memory function was carried out; there were assessed: (1) mnestic component of the environmental orientation of a patient; (2) involuntary memory for current events; (3) intentional exo-experimental memory; (4) volume and soundness of audio-speaking memory; (5) volume and soundness of visual memory; (6) operative memory; (7) memory for knowledge acquired before the disease.

[5] = test system: learning ability of rats in a shuttle chamber; assay: Active avoidance learning in a shuttle chamber, rats; format: in vivo, rat; conditions: rats, hypodermally 100 mg/kg
From the text: as §4, §5, §6

[6] = hypodermally 10 mg/kg, 12 day (retention)
[7] = hypodermally 30 mg/kg, 12 day (retention)
[8] = hypodermally 100 mg/kg, 1st day
[9] = hypodermally 100 mg/kg, 12 day (retention)
[10] = per os 30 mg/kg, 12 day (retention)
[11] = per os 100 mg/kg, 12 day (retention)

NC(=O)CN1CCCC1=O [Pyracetam, pyracetam] was tested, and the “asymmetry factor (in words)” value [1] was “failed to influence all these characteristics”, the “Asymmetry factor, Preparation” value ([1]; hypodermally 100 mg/kg, control 0.19 ± 0.03) was 0.213 ± 0.05 and the “learning and memory (in words)” value ([2]; hypodermally) was “improves learning, but not memory”. For the same compound, the “% of avoidance reactions, group I” value ([2]; hypodermally 10 mg/kg, 1st day) was 23%, the “% of avoidance reactions, group II” value ([2]; hypodermally 10 mg/kg, 1st day) was 33% and the “% of avoidance reactions, group III” value ([2]; hypodermally 10 mg/kg, 1st day) was 48%. For the same compound, the “% of avoidance reactions, group IV” value ([2]; hypodermally 10 mg/kg, 1st day) was 52%, the “% of avoidance reactions, group V” value ([2]; hypodermally 10 mg/kg, 1st day) was 60% and the “% of avoidance reactions, group VI” value ([2]; hypodermally 10 mg/kg, 1st day) was 61%. For the same compound, the “% of avoidance reactions, group I” value [2, 6] was 60%, the “% of avoidance reactions, group II” value [2, 6] was 78% and the “% of avoidance reactions, group III” value [2, 6] was 80%. The “% of avoidance reactions, group IV” value [2, 6] was 79%, the “% of avoidance reactions, group V” value [2, 6] was 80% and the “% of avoidance reactions, group VI” value [2, 6] was 78%. The “% of avoidance reactions, group I” value ([2]; hypodermally 30 mg/kg, 1st day) was 20%, the “% of avoidance reactions, group II” value ([2]; hypodermally 30 mg/kg, 1st day) was 32% and the “% of avoidance reactions, group III” value ([2]; hypodermally 30 mg/kg, 1st day) was 55%. The “% of avoidance reactions, group IV” value ([2]; hypodermally 30 mg/kg, 1st day) was 67%, the “% of avoidance reactions, group V” value ([2]; hypodermally 30 mg/kg, 1st day) was 70% and the “% of avoidance reactions, group VI” value ([2]; hypodermally 30 mg/kg, 1st day) was 75%. The “% of avoidance reactions, group I” value [2, 7] was 60%, the “% of avoidance reactions, group II” value [2, 7] was 80% and the “% of avoidance reactions, group III” value [2, 7] was 82%. The “% of avoidance reactions, group IV” value [2, 7] was 81%, the “% of avoidance reactions, group V” value [2, 7] was 84% and the “% of avoidance reactions, group VI” value [2, 7] was 88%. The “% of avoidance reactions, group I” value [2, 8] was 24%, the “% of avoidance reactions, group II” value [2, 8] was 41% and the “% of avoidance reactions, group III” value [2, 8] was 55%. For the same compound, the “% of avoidance reactions, group IV” value [2, 8] was 70%, the “% of avoidance reactions, group V” value [2, 8] was 72% and the “% of avoidance reactions, group VI” value [2, 8] was 74%. For the same compound, the “% of avoidance reactions, group I” value [2, 9] was 62%, the “% of avoidance reactions, group II” value [2, 9] was 90% and the “% of avoidance reactions, group III” value [2, 9] was 92%. The “% of avoidance reactions, group IV” value [2, 9] was 90%, the “% of avoidance reactions, group V” value [2, 9] was 90% and the “% of avoidance reactions, group VI” value [2, 9] was 92%. For the same compound, the “effect upon per os administration (in words)” value ([2]; per os) was “the effect is noticeably reduced”, the “% of avoidance reactions, group I” value ([2]; per os 30 mg/kg, 1st day) was 11% and the “% of avoidance reactions, group II” value ([2]; per os 30 mg/kg, 1st day) was 17%. The “% of avoidance reactions, group III” value ([2]; per os 30 mg/kg, 1st day) was 31%, the “% of avoidance reactions, group IV” value ([2]; per os 30 mg/kg, 1st day) was 32% and the “% of avoidance reactions, group V” value ([2]; per os 30 mg/kg, 1st day) was 33%. For the same compound, the “% of avoidance reactions, group VI” value ([2]; per os 30 mg/kg, 1st day) was 40%, the “% of avoidance reactions, group I” value [2, 10] was 48% and the “% of avoidance reactions, group II” value [2, 10] was 70%. For the same compound, the “% of avoidance reactions, group III” value [2, 10] was 71%, the “% of avoidance reactions, group IV” value [2, 10] was 78% and the “% of avoidance reactions, group V” value [2, 10] was 78%. The “% of avoidance reactions, group VI” value [2, 10] was 81%, the “% of avoidance reactions, group I” value ([2]; per os 100 mg/kg, 1st day) was 21% and the “% of avoidance reactions, group II” value ([2]; per os 100 mg/kg, 1st day) was 22%. For the same compound, the “% of avoidance reactions, group III” value ([2]; per os 100 mg/kg, 1st day) was 32%, the “% of avoidance reactions, group IV” value ([2]; per os 100 mg/kg, 1st day) was 42% and the “% of avoidance reactions, group V” value ([2]; per os 100 mg/kg, 1st day) was 43%. For the same compound, the “% of avoidance reactions, group VI” value ([2]; per os 100 mg/kg, 1st day) was 52%, the “% of avoidance reactions, group I” value [2, 11] was 69% and the “% of avoidance reactions, group II” value [2, 11] was 80%. The “% of avoidance reactions, group III” value [2, 11] was 82%, the “% of avoidance reactions, group IV” value [2, 11] was 79% and the “% of avoidance reactions, group V” value [2, 11] was 78%. For the same compound, the “% of avoidance reactions, group VI” value [2, 11] was 78%, the “amplitude of induced potentials (in words)” value [3] was “failed to influence all these characteristics” and the “% of knowledge retention” value [4] was 26%. The “Number of combinations till appearance of "learning criterion", I teaching” value [4] was 30.3 ± 2.5, the “Number of combinations till appearance of "learning criterion", II-checking of retention of knowledge” value [4] was 22.4 ± 2.1 and the “Number of untaught animals in the group” value [4] was 9/20. For the same compound, the “effect on the functional symmetry of the brain and activity of the dominating hemisphere” value (patients; experimental and clinical studies) was “no such effect”, the “character of recovery (in words)” value (patients; patients) was “uniform regression of all available disorders” and the “Number of combinations to reach the "learning criterion" in II teaching series (after 7 days)” value [5] was 4.7 ± 0.9. The “Number of combinations to reach the "learning criterion" in the I teaching series” value [5] was 20.8 ± 1.2, the “Number of non-taught animals in the group” value [5] was 1/20 and the Percentage knowledge retention [5] was 70%.
